Results as given in ChEMBL document CHEMBL4390686, “Design, Synthesis, and Pharmacokinetic Evaluation of Phosphate and Amino Acid Ester Prodrugs for Improving the Oral Bioavailability of the HIV-1 Protease Inhibitor Atazanavir” (J Med Chem, 2019).
≈ marks a conversion by molar mass, not a printed value. Each block holds one molecule with its values, some of them ahead of it.

Legend:
[1] = Prodrug conversion in cannulated Sprague-Dawley rat plasma assessed as atazanavir formation at 3 mg/kg equiv of atazanavir administered orally by UPLC/MS/MS analysis; type: ADME, organism-based; details: in vivo, po
[2] = Prodrug conversion assessed as recombinant rat intestinal alkaline phosphatase-mediated compound dephosphorylation by measuring half life by UPLC-MS/MS analysis; type: ADME
[3] = Prodrug conversion assessed as recombinant human intestinal alkaline phosphatase-mediated compound dephosphorylation by measuring half life by UPLC-MS/MS analysis; type: ADME; details: isolated protein
physchem [4] = details: 30% CH3CN/HCl buffer, pH 1
Description: Half life in pH 1 30%CH3CN/HCl buffer at 50 mM by RP-UPLC analysis

physchem [5] = details: 30% CH3CN/acetate buffer, pH 4
Description: Half life in pH 4 30%CH3CN/acetate buffer at 50 mM by RP-UPLC analysis

physchem [6] = details: 30% CH3CN/phosphate buffer, pH 6.5
Description: Half life in pH 6.5 30%CH3CN/phosphate buffer at 50 mM by RP-UPLC analysis

physchem [7] = details: HCl buffer, pH 1
Description: Aqueous solubility of the compound in pH 1 HCl buffer by RP-UPLC analysis

physchem [8] = details: acetate buffer, pH 4
Description: Aqueous solubility of the compound in pH 4 acetate buffer by RP-UPLC analysis

physchem [9] = details: phosphate buffer, pH 6.5
Description: Aqueous solubility of the compound in pH 6.5 phosphate buffer by RP-UPLC analysis

[10] = Aqueous solubility of the compound in pH 3 buffer by RP-UPLC analysis; type: physicochemical
[11] = Aqueous solubility of the compound in pH 4 citrate buffer by RP-UPLC analysis; type: physicochemical
[12] = Aqueous solubility of the compound in pH 5 buffer by RP-UPLC analysis; type: physicochemical
[13] = Elimination half life in rat hepatocytes at 1 uM in absence of esterase inhibitor PMSF/CYP450 inhibitor ABT; type: ADME, cell-based, Hepatocyte; details: read-out: beta t1/2
[14] = Prodrug conversion in mesenteric vein plasma of closed loop rat intestinal model assessed as atazanavir recovery at 1 mg/kg administered as cassette dose by LC/MS analysis; type: ADME, organism-based; details: in vivo
[15] = Prodrug conversion in intestinal homogenates of closed loop rat intestinal model assessed as atazanavir recovery at 1 mg/kg administered as cassette dose by LC/MS analysis; type: ADME, organism-based, Intestine; details: in vivo
[16] = Prodrug conversion in intestinal content of closed loop rat intestinal model assessed as atazanavir recovery at 1 mg/kg administered as cassette dose by LC/MS analysis; type: ADME, organism-based; details: in vivo
[17] = biological target: T1, UDP-glucuronosyltransferase 1A1 (Homo sapiens, UniProt P22309); assay: Inhibition of recombinant human UGT1A1 using bilirubin as substrate preincubated for 5 mins followed by substrate addition and measured after 40 mins by LC-MS/MS analysis; type: ADME
T1 sequence (P22309 whole entry): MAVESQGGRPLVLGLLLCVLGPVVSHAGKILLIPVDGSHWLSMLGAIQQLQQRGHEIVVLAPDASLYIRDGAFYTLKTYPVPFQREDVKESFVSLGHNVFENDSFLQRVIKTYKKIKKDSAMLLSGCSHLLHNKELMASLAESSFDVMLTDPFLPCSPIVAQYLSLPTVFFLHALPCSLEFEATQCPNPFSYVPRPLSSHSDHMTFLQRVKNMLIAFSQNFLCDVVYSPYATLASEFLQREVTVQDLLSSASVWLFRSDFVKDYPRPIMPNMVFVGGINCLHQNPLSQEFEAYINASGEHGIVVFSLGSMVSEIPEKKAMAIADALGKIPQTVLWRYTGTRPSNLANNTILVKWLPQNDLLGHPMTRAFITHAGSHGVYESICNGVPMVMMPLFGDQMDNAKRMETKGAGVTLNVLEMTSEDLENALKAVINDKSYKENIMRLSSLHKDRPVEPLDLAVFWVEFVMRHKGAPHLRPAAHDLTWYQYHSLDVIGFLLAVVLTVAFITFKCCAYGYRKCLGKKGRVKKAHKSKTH

[18] = biological target: T2, UDP-glucuronosyltransferase 1A1 (Rattus norvegicus, UniProt Q64550); assay: Inhibition of recombinant rat UGT1A1 using beta-estradiol as substrate preincubated for 5 mins followed by substrate addition and measured after 40 mins by LC-MS/MS analysis; type: ADME
T2 sequence (Q64550 whole entry): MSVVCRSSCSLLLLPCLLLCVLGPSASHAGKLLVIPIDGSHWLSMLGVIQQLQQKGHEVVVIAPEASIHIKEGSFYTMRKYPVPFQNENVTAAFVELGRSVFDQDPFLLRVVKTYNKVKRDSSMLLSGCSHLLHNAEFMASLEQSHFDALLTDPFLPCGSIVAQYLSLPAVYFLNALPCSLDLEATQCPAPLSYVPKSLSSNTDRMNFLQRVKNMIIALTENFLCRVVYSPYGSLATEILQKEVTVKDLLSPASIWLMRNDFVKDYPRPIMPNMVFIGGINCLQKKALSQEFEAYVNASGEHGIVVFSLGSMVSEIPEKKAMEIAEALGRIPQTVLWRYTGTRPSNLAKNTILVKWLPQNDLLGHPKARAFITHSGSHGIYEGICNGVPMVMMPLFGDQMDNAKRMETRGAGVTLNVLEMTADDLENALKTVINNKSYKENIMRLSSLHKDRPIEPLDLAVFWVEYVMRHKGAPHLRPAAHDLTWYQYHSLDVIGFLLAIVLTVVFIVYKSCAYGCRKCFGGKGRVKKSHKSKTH

[19] = biological target: T1, UDP-glucuronosyltransferase 1A1; assay: Inhibition of UGT1A1 in human liver microsomes using beta-estradiol as substrate preincubated for 5 mins followed by substrate addition and measured after 40 mins by LC-MS/MS analysis; type: ADME
[20] = biological target: T2, UDP-glucuronosyltransferase 1A1; assay: Inhibition of UGT1A1 in rat liver microsomes using beta-estradiol as substrate preincubated for 5 mins followed by substrate addition and measured after 40 mins by LC-MS/MS analysis; type: ADME
[21] = Drug recovery in feces of po dosed human; type: ADME, organism-based; details: faeces, read-out: Drug recovery
[22] = Oral bioavailability in rat; type: ADME, organism-based; details: in vivo
[23] = Oral bioavailability in dog; type: ADME, organism-based, Canis lupus familiaris; details: in vivo
[24] = Drug recovery in feces of po dosed rat; type: ADME, organism-based; details: faeces, read-out: Drug recovery
[25] = Drug recovery in feces of po dosed dog; type: ADME, organism-based, Canis lupus familiaris; details: faeces, read-out: Drug recovery
[26] = Dissociation constant, pKa of the compound; type: physicochemical
Protease = Protease (Human immunodeficiency virus 1, UniProt Q9YQ12)
Description: Inhibition of HIV1 protease activity

physchem [27] = details: phosphate buffer, pH 7.4
Description: Aqueous solubility of the compound in pH 7.4 phosphate buffer by RP-UPLC analysis

in vitro [28] = details: human, Caco-2
Description: Apparent permeability across apical to basolateral side in human Caco2 cells at 2 uM

in vitro [29] = details: human, Caco-2; remark: listed apart in the source
Description: Apparent permeability across basolateral to apical side in human Caco2 cells at 2 uM

in vitro [30] = details: human, Caco-2; remark: listed apart in the source
Description: Efflux ratio of apparent permeability across basolateral to apical side over apical to basolateral side in human Caco2 cells

[31] = test system: Human immunodeficiency virus 1; assay: microbe, parasite or virus in culture; details: Human immunodeficiency virus 1, NL4-3, MT2, 96 h
Description: Antiviral activity against HIV1 NL4-3 infected in human MT2 cells assessed as reduction in viral yield measured after 4 days by EnduRen live cell substrate based luciferase reporter gene assay

[32] = Prodrug conversion assessed as calf intestinal alkaline phosphatase-mediated compound dephosphorylation by measuring half life by UPLC-MS/MS analysis; type: ADME, Bos taurus; details: cattle, isolated protein
[33] = Drug recovery in mesenteric vein plasma of closed loop rat intestinal model at 1 mg/kg administered as cassette dose by LC/MS analysis; type: ADME, organism-based; details: in vivo
[34] = Drug recovery in intestinal homogenates of closed loop rat intestinal model at 1 mg/kg administered as cassette dose by LC/MS analysis; type: ADME, organism-based, Intestine; details: intestinal homogenate, other: closed loop intestinal model, read-out: Drug recovery
[35] = Drug recovery in intestinal content of closed loop rat intestinal model at 1 mg/kg administered as cassette dose by LC/MS analysis; type: ADME, organism-based; details: in vivo

Sequence of Protease (Q9YQ12 whole entry): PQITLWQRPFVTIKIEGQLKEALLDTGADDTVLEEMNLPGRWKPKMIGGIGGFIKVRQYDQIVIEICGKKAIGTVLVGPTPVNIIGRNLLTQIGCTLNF

Drug metabolism [1]: Metabolite_Notdetected
t1/2 [2]: > 0.0833 days
t1/2 [3]: > 0.0833 days
half-life at 50000 µM (physchem [4]): 13.9 days
half-life at 50000 µM (physchem [5]): 13.9 days
half-life at 50000 µM (physchem [6]): 10.4 days
solubility (physchem [7]): > 2650 µg/mL
solubility (physchem [8]): 250 µg/mL (≈ 319 µM)
solubility (physchem [9]): > 2870 µg/mL
SMILES: COC(=O)N[C@H](C(=O)N[C@@H](Cc1ccccc1)[C@H](CN(Cc1ccc(-c2ccccn2)cc1)NC(=O)[C@@H](NC(=O)OC)C(C)(C)C)OP(=O)(O)O)C(C)(C)C

SMILES: COC(=O)N[C@H](C(=O)N[C@@H](Cc1ccccc1)[C@@H](O)CN(Cc1ccc(-c2ccccn2)cc1)NC(=O)[C@@H](NC(=O)OC)C(C)(C)C)C(C)(C)C [ATAZANAVIR]
solubility [10]: 28 µg/mL (≈ 39.7 µM)
solubility [11]: < 1 µg/mL
solubility [12]: < 1 µg/mL
half-life at 1 µM [13]: 0.0187 days
Drug recovery [14]: 1.4%
Drug recovery [15]: 1.6%
Drug recovery [16]: 16.1%
IC50 [17]: 300 nM
IC50 [18]: 4200 nM
IC50 [19]: 600 nM
IC50 [20]: 3400 nM
dose excreted [21]: 79%
bioavailability [22]: 15%
bioavailability [23]: 36%
dose excreted [24]: 39%
dose excreted [25]: 79%
pKa [26]: 4.7
IC50 (Protease): 0.3 nM
solubility (physchem [27]): < 1 µg/mL
Papp A→B at 2 µM (in vitro [28]): < 1.5 ×10⁻⁶ cm/s
Papp B→A at 2 µM (in vitro [29]): 20.3 ×10⁻⁶ cm/s
efflux ratio (in vitro [30]): > 14
EC50 [31]: 0.7 nM

Drug metabolism [1]: Metabolite_Detected
t1/2 [32]: 0.00917 days
SMILES: Cc1cccc(C)c1OCC(=O)N[C@@H](Cc1ccccc1)[C@@H](O)C[C@H](Cc1ccccc1)NC(=O)[C@H](C(C)C)N1CCCNC1=O [LOPINAVIR]

Drug recovery [33]: 1.3%
recovery [34]: 14%
Drug recovery [35]: 45%
SMILES: CC(C)(C)NCC(O)COc1cccc2c1CC(O)C(O)C2 (configuration not stated) [NADOLOL]
